Data taken from PMC9281089 (Journal of Translational Medicine, 2022).
Where “and” joins values, the source holds several entries; their conditions need not be identical. Equal entries are not always repeated. Structures can show the parent of a compound that is named as a salt.

Legend:
[1] = target: SARS-CoV-2 S-protein RBD / ACE2 interaction (UniProt P0DTC2+Q9BYF1); assay: biochemical; set-up: species or system SARS-CoV-2 / human; conditions: EC50 (HTRF), inhibition of binding of S-RBD to ACE2

Row | SMILES | EC50 [1] | cytotoxicity (comparative) (cells; compared with tannic acid and nafamostat mesilate) | cytotoxicity to cells (cells; at a high concentration (> 30 µM)) | cytotoxicity at effective concentration (cells; when the effective concentration is applied)
1 | N=C(N)c1ccc2cc(OC(=O)c3ccc(N=C(N)N)cc3)ccc2c1 [Nafamostat mesylate, reference compound] | 11.3 µM | – | – | –
2 | COc1ccc2c3ccnc4ccc(=O)n(c2c1)c43 [TS-984, 9-Methoxycanthin-6-one] | 36.2 µM | lower cytotoxicity | – | –
3 | O=C1c2ccccc2C(=O)c2ccccc21 [TS-1276, anthraquinone] | 55.9 µM and 16.4 µM | – | – | –
4 | O=C(OC[C@H]1O[C@@H](OC(=O)c2cc(O)c(O)c(OC(=O)c3cc(O)c(O)c(O)c3)c2)[C@H](OC(=O)c2cc(O)c(O)c(OC(=O)c3cc(O)c(O)c(O)c3)c2)[C@@H](OC(=O)c2cc(O)c(O)c(OC(=O)c3cc(O)c(O)c(O)c3)c2)[C@@H]1OC(=O)c1cc(O)c(O)c(OC(=O)c2cc(O)c(O)c(O)c2)c1)c1cc(O)c(O)c(OC(=O)c2cc(O)c(O)c(O)c2)c1 [tannic acid, reference compound] | – | – | strong cytotoxicity | higher cytotoxicity that leads to cell death
